# Results published in paper PMC6032384 (International Journal of Molecular Sciences, 2018).
# Where two headings read alike, the source gives them in different places.
# How the values were obtained:
# [1] = tested on: MRC-5 (human lung fibroblast); experiment: Alamar blue (AB) cytotoxicity assay, MRC-5 noncancerous cells; format: cell-based; conditions: MRC5 non-cancer cells, 72 h
# HL-60 cells [2] = experiment: Annexin V-FITC/PI apoptosis assay by flow cytometry; format: cell-based, human; conditions: annexin V-FITC/PI, 24 and 48 h
# Experimental: Additionally, annexin V, which is a Ca^2+-dependent protein with high affinity for phosphatidylserine, was conjugated to a fluorochrome to detect phosphatidylserine exposure using flow cytometry. Since phosphatidylserine exposure precedes the loss of membrane integrity, annexin V staining was used along with the dye PI to identify early and late apoptotic cells, as well as necrotic cells. Therefore, annexin V-FITC/PI double staining was applied to HL-60 cells that were treated with the [Ru(PPh3)2(Thy)(bipy)]PF6 complex after 24 and 48 h of incubation, and the numbers of viable, early apoptotic, late apoptotic, and necrotic cells were quantified by flow cytometry (Figure 5).
# Figure 5 Evaluation of the apoptosis induced by the [Ru(PPh3)2(Thy)(bipy)]PF6 complex (CRT) in HL-60 cells determined by flow cytometry using annexin V-FITC/PI staining after 24 and 48 h of incubation. (A) Representative flow cytometry dot plots. (B) Apoptotic cell quantification (annexin V-FITC positive cells). […] Data are presented as the mean ± S.E.M. of at the least three independent experiments. * p < 0.05 as compared with the negative control by ANOVA, followed by the Student Newman-Keuls test. […] Its quadrant percentages are just as hard to read: 24 h about Q1 0.640%, Q2 5.23%, Q4 85.6%, Q3 8.47%; 48 h about Q1 0.430%, Q2 3.07%, Q4 91.0%, Q3 5.52%.
# (§1) Light scattering features were determined by flow cytometry. The internucleosomal DNA fragmentation and cell cycle distribution were determined according to Nicoletti et al.. For apoptosis measurements, a FITC Annexin V Apoptosis Detection Kit I (BD Biosciences, San Jose, CA, USA) was used, and the analysis was performed, according to the manufacturer’s instructions. A protection assay using the pan-caspase inhibitor Z-VAD(OMe)-FMK (Cayman Chemical, Ann Arbor, MI, USA) was also evaluated. The mitochondrial transmembrane potential was determined by the retention of the dye rhodamine 123 [28]. The levels of ROS were measured, as previously described, using 2′,7′-dichlorofluorescin diacetate (DCF-DA, Sigma-Aldrich Co.). At least 1 × 10^4 events were recorded per sample using a BD LSRFortessa cytometer along with BD FACSDiva Software (BD Biosciences) and Flowjo Software 10 (Flowjo LCC, Ashland, OR, USA). The cellular debris was omitted from the analysis.
# [3] = tested on: wild-type immortalized mouse embryonic fibroblasts (WT SV40 MEF); experiment: Alamar blue (AB) cytotoxicity assay, WT SV40 MEF; format: cell-based; conditions: Mus musculus, Fibroblast, 72 h
# [4] = tested on: PBMC (human peripheral blood mononuclear cell); experiment: Alamar blue (AB) cytotoxicity assay, PBMC noncancerous cells; format: cell-based; conditions: PBMC non-cancer cells, 72 h
# HL-60 cells [5] = experiment: Cell morphology (May-Grunwald-Giemsa staining) and light scattering by flow cytometry; format: cell-based, human; conditions: positive controls, DOX 2 µM, OXA 2.5 µM
# HL-60 cells [6] = format: cell-based, human; conditions: for DNA fragmentation (in words): positive controls, DOX 2 µM, 24 and 48 h
# Experimental: The internucleosomal DNA fragmentation and cell cycle distribution were assessed in HL-60 cells after 24 and 48 h of incubation with the [Ru(PPh3)2(Thy)(bipy)]PF6 complex in a DNA content-based assay using the dye propidium iodide (PI) and flow cytometry (Table 3). All DNA with a subdiploid size (sub-G0/G1) were considered to be fragmented. At concentrations of 1, 2, and 4 μM, the complex led to, respectively, 19.4%, 30.1%, and 36.2% DNA fragmentation after 24 h of incubation and to 12.5%, 26.7%, and 58.2% DNA fragmentation after 48 h of incubation.
# as §1
# HL-60 cells [7] = conditions: 2 μM, TBE
# [8] = tested on: BAD gene knockout immortalized mouse embryonic fibroblasts (BAD KO SV40 MEF); experiment: Alamar blue (AB) cytotoxicity assay, BAD KO SV40 MEF; format: cell-based; conditions: Mus musculus, Fibroblast, 72 h
smiles,measurement,setting,value
"COc1cccc2c1C(=O)c1c(O)c3c(c(O)c1C2=O)C[C@@](O)(C(=O)CO)C[C@@H]3O[C@H]1C[C@H](N)[C@H](O)[C@H](C)O1 [DOX, Doxorubicin, reference compound]",IC50,[1]; Homo sapiens,1.5 µM
same,Percentage of apoptotic cells (early apoptotic cells + late apoptotic cells),HL-60 cells [2],caused an increase
same,IC50,[3],0.8 µM
same,IC50,[4]; Homo sapiens,5.1 µM
same,Type of cell death,HL-60 cells [5],caused cell death by apoptosis
same,DNA content G0/G1,"HL-60 cells [6]; 2 µM, 24 h",19.9 ± 2.5 %
same,DNA content G2/M,"HL-60 cells [6]; 2 µM, 24 h",8.9 ± 1.5 %
same,DNA content S,"HL-60 cells [6]; 2 µM, 24 h",6.6 ± 1.6 %
same,DNA content Sub-G0/G1 (DNA fragmentation),"HL-60 cells [6]; 2 µM, 24 h",58.6 ± 2.5 %
same,DNA content G0/G1,"HL-60 cells [6]; 2 µM, 48 h",21.9 ± 3.0 %
same,DNA content G2/M,"HL-60 cells [6]; 2 µM, 48 h",3.8 ± 0.9 %
same,DNA content S,"HL-60 cells [6]; 2 µM, 48 h",6.5 ± 0.6 %
same,DNA content Sub-G0/G1 (DNA fragmentation),"HL-60 cells [6]; 2 µM, 48 h",65.4 ± 2.8 %
same,DNA fragmentation (in words),HL-60 cells [6]; OXA 2.5 µM,induced DNA fragmentation
same,Reduction of the number of viable cells,HL-60 cells [7]; 24 h,58.0%
same,Reduction of the number of viable cells,HL-60 cells [7]; 48 h,88.1%
same,IC50,[8],1.3 µM
"O=C1[O][Pt]2([NH][C@@H]3CCCC[C@H]3[NH]2)[O]C1=O [OXA, Oxaliplatin, reference compound]",IC50,[1],1.3 µM
same,Percentage of apoptotic cells (early apoptotic cells + late apoptotic cells),HL-60 cells [2],caused an increase
same,IC50,[4],9.4 µM
same,Type of cell death,HL-60 cells [5],caused cell death by apoptosis
same,DNA content G0/G1,"HL-60 cells [6]; 2.5 µM, 24 h",31.4 ± 3.0 %
same,DNA content G2/M,"HL-60 cells [6]; 2.5 µM, 24 h",26.0 ± 3.6 %
same,DNA content S,"HL-60 cells [6]; 2.5 µM, 24 h",11.6 ± 2.3%
same,DNA content Sub-G0/G1 (DNA fragmentation),"HL-60 cells [6]; 2.5 µM, 24 h",21.9 ± 3.3 %
same,DNA content G0/G1,"HL-60 cells [6]; 2.5 µM, 48 h",42.9 ± 2.8 %
same,DNA content G2/M,"HL-60 cells [6]; 2.5 µM, 48 h",19.1 ± 3.3%
same,DNA content S,"HL-60 cells [6]; 2.5 µM, 48 h",14.2 ± 1.2%
same,DNA content Sub-G0/G1 (DNA fragmentation),"HL-60 cells [6]; 2.5 µM, 48 h",18.4 ± 4.4 %
same,Cell cycle arrest,HL-60 cells [6]; OXA 2.5 µM,cell cycle arrest at the G2/M phase
same,DNA fragmentation (in words),HL-60 cells [6]; OXA 2.5 µM,induced DNA fragmentation
